Measurements: publication PMC10354055, “An optimized Nurr1 agonist provides disease-modifying effects in Parkinson’s disease models” (Nature Communications, 2023)
Several values for one entry are separate records, joined by “and”; a condition that tells them apart may be missing. Identical values can stand only once.

Key:
Iba-1+ microglia = test: Primary rat VM neuron-glia co-culture, Iba-1+ microglia (ICC); type: cell-based; conditions: for Iba-1+ cells (% of control): Fig. 2g
Experimental: Primary rat VM neuron-glia co-culture was prepared from E14 rat embryos (Fisher 344; Charles River)[33]. […] After blocking with 10% normal donkey serum (NDS) and 0.1% Triton X-100 solution for 1 h at room temperature, cells were incubated with primary antibodies against TH (1:1,000; Pel Freez, P40401) and Iba-1 (1:500; Abcam, ab5076) in 1% NDS and 0.1% Triton X-100 solution for overnight at 4 °C. Alexa Fluor 568- or Alexa Fluor 488-conjugated anti-rabbit or anti-goat secondary antibodies (1:500; Invitrogen) were incubated following the primary antibody incubation, and then cover glasses were mounted using FluoShield^TM mounting media (Sigma-Aldrich). Fluorescence images were taken using a KEYENCE microscope (BZ-X800; KEYENCE).

N27-A cells = test: Autophagic flux, Western blot LC3B and p62, N27-A cells; type: cell-based, rat; conditions: for Relative LC3B-II experession (normalized to β-actin): individual replicates; for autophagic flux (in words): N27-A
Experimental: Experiments were confirmed by duplicate measurements of the same sample. Quantification of immunoreactive bands was performed using ImageJ software (NIH, Bethesda, MD, USA) and expressed as a relative ratio against β-actin.
The band intensities were quantified using ImageJ and normalized against β-actin.

Nurr1-LBD point mutants [1] = biological target: T1, Nurr1-LBD point mutants (Mus musculus, UniProt Q06219, L593A); test: Luciferase assay with point-mutants of Nurr1-LBD, SK-N-BE(2)C cells;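 note: Firefly luciferase normalized to beta-galactosidase activity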; type: cell-based; conditions: Fig. 1g, L593A
T1 construct: expressed in transfected cells; host or cells: SK-N-BE(2)C
Experimental: (§1) Nurr1 transactivity was normalized to β-galactosidase activity.
(§2) Nurr1 mutants were generated using the QuikChange ǁ XL site-directed mutagenesis kit (Agilent Technologies) according to the manufacturer’s instruction. Mutagenesis reactions were carried out on the plasmid of mouse Nurr1 cloned into pcDNA3.1 backbone, and then verified by sequencing.

Nurr1-LBD point mutants [2] = biological target: T2, Nurr1-LBD point mutants (Mus musculus, UniProt Q06219, I573A); test: as above; type: cell-based; conditions: Fig. 1g, I573A
T2 construct: expressed in transfected cells; host or cells: SK-N-BE(2)C
Experimental: as §1, §2

Nurr1-LBD point mutants [3] = biological target: T3, Nurr1-LBD point mutants (Mus musculus, UniProt Q06219, S441A); test: as above; type: cell-based; conditions: Fig. 1g, S441A
T3 construct: expressed in transfected cells; host or cells: SK-N-BE(2)C
Experimental: as §1, §2

Nurr1-LBD point mutants [4] = biological target: T4, Nurr1-LBD point mutants (Mus musculus, UniProt Q06219); test: as above; type: cell-based; conditions: Fig. 1g, WT
T4 construct: expressed in transfected cells; host or cells: SK-N-BE(2)C
Experimental: as §1, §2

Nurr1-LBD point mutants [5] = biological target: T5, Nurr1-LBD point mutants (Mus musculus, UniProt Q06219, A586F); test: as above; type: cell-based; conditions: Fig. 1g, A586F
T5 construct: expressed in transfected cells; host or cells: SK-N-BE(2)C
Experimental: as §1, §2

Nurr1-LBD point mutants [6] = biological target: T6, Nurr1-LBD point mutants (Mus musculus, UniProt Q06219, I588A); test: as above; type: cell-based; conditions: Fig. 1g, I588A
T6 construct: expressed in transfected cells; host or cells: SK-N-BE(2)C
Experimental: as §1, §2

Nurr1-LBD point mutants [7] = biological target: T7, Nurr1-LBD point mutants (Mus musculus, UniProt Q06219, K590A); test: as above; type: cell-based; conditions: Fig. 1g, K590A
T7 construct: expressed in transfected cells; host or cells: SK-N-BE(2)C
Experimental: as §1, §2

T6 sequence (Q06219 whole entry I588A, the tested form may be a part): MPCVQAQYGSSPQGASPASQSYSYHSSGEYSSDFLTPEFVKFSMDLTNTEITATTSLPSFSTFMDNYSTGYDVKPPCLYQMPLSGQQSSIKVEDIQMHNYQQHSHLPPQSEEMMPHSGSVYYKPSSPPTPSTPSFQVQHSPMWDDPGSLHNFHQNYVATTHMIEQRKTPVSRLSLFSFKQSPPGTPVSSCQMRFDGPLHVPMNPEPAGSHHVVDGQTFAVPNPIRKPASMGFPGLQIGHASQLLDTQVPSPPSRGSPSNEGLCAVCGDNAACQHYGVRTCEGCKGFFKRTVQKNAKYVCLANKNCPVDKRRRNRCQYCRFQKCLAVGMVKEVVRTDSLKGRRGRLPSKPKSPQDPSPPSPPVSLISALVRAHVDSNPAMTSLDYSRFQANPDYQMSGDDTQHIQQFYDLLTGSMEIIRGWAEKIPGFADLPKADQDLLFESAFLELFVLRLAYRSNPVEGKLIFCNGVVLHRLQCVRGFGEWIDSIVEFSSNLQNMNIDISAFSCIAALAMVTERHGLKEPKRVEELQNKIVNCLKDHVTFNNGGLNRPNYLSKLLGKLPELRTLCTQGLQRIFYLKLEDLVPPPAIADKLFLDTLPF
T3 sequence (Q06219 whole entry S441A, the tested form may be a part): as the sequence (Q06219 whole entry I588A, the tested form may be a part) above, with S441A, A588I counted along it
T4 sequence (Q06219 whole entry, change not shown, the tested form may be a part): as the sequence (Q06219 whole entry I588A, the tested form may be a part) above, with A588I counted along it
T5 sequence (Q06219 whole entry A586F, the tested form may be a part): as the sequence (Q06219 whole entry I588A, the tested form may be a part) above, with A586F, A588I counted along it
T2 sequence (Q06219 whole entry I573A, the tested form may be a part): as the sequence (Q06219 whole entry I588A, the tested form may be a part) above, with I573A, A588I counted along it
T7 sequence (Q06219 whole entry K590A, the tested form may be a part): as the sequence (Q06219 whole entry I588A, the tested form may be a part) above, with A588I, K590A counted along it
T1 sequence (Q06219 whole entry L593A, the tested form may be a part): as the sequence (Q06219 whole entry I588A, the tested form may be a part) above, with A588I, L593A counted along it

Compound: CCN1CCN(c2cc(N3CCN(CC)CC3)nc(NCCNc3ccnc4cc(Cl)ccc34)n2)CC1 [4A7C-301, N^1-(4,6-bis(4-ethylpiperazin-1-yl)pyrimidin-2-yl)-N^2-(7-chloroquinolin-4-yl)ethane-1,2-diamine]
- Iba-1+ cells (% of control) (Iba-1+ microglia; 4A7C-301 only, 50 nM, 0.05 µM): 77.52 % of control and 86.67 % of control and 96.15 % of control
- Iba-1+ cells (% of control) (Iba-1+ microglia; 4A7C-301 only, 500 nM, 0.5 µM): 69.77 % of control and 67.62 % of control and 86.92 % of control
- Iba-1+ cells (% of control) (Iba-1+ microglia; + LPS, 5 nM, 0.005 µM): 240.31 % of control and 188.57 % of control and 210 % of control
- Iba-1+ cells (% of control) (Iba-1+ microglia; + LPS, 50 nM, 0.05 µM): 160.47 % of control and 128.57 % of control and 139.23 % of control
- Iba-1+ cells (% of control) (Iba-1+ microglia; + LPS, 500 nM, 0.5 µM): 102.4 % of control and 80.95 % of control and 100.31 % of control
- Iba-1+ cells (% of control) (Iba-1+ microglia; + LPS, 1000 nM, 1 µM): 86.82 % of control and 87.62 % of control and 103.69 % of control
- Iba-1+ cells (% of control) (Iba-1+ microglia; + MPP+, 5 nM, 0.005 µM): 114.73 % of control and 125.71 % of control and 144.62 % of control
- Iba-1+ cells (% of control) (Iba-1+ microglia; + MPP+, 50 nM, 0.05 µM): 96.12 % of control and 105.71 % of control and 78.46 % of control
- Iba-1+ cells (% of control) (Iba-1+ microglia; + MPP+, 500 nM, 0.5 µM): 64.34 % of control and 63.81 % of control and 42.31 % of control
- Iba-1+ cells (% of control) (Iba-1+ microglia; + MPP+, 1000 nM, 1 µM): 42.64 % of control and 72.38 % of control and 48.46 % of control
- concentration of optimal suppression of microglial activation (Iba-1+ microglia; against LPS): 500 nM
- concentration of optimal suppression, times lower than CQ (Iba-1+ microglia; against LPS): 40 times
- Relative LC3B-II experession (normalized to β-actin) (N27-A cells; Figure 3f, w/ MPP+, 0h): 0.779 and 0.690 and 0.799
- Relative LC3B-II experession (normalized to β-actin) (N27-A cells; Figure 3f, w/ MPP+, 4h): 1.160 and 0.971 and 1.153
- Relative LC3B-II experession (normalized to β-actin) (N27-A cells; Figure 3f, w/o MPP+, 0h): 0.728 and 0.654 and 0.714
- Relative LC3B-II experession (normalized to β-actin) (N27-A cells; Figure 3f, w/o MPP+, 4h): 0.866 and 0.789 and 0.873
- Relative LC3B-II experession (normalized to β-actin) (N27-A cells; Figure 3g, w/ MPP+, 0h): 1.116 and 1.094 and 1.285
- Relative LC3B-II experession (normalized to β-actin) (N27-A cells; Figure 3g, w/ MPP+, 4h): 0.639 and 0.745 and 0.861
- Relative LC3B-II experession (normalized to β-actin) (N27-A cells; Figure 3g, w/o MPP+, 0h): 1.157 and 1.166 and 1.326
- Relative LC3B-II experession (normalized to β-actin) (N27-A cells; Figure 3g, w/o MPP+, 4h): 0.499 and 0.504 and 0.579
- autophagic flux (in words) (N27-A cells; MPP+ 1 mM): significantly restored autophagy
- autophagic flux (in words) (N27-A cells; without MPP+): proceeded
- Luciferase activity (fold) (Nurr1-LBD point mutants [1]): 5.7 fold and 5.711 fold and 5.709 fold and 5.928 fold
- Luciferase activity (fold) (Nurr1-LBD point mutants [2]): 1.906 fold and 2.068 fold and 2.015 fold and 1.962 fold
- Luciferase activity (fold) (Nurr1-LBD point mutants [3]): 8.067 fold and 8.586 fold and 8.69 fold and 8.14 fold
- Luciferase activity (fold) (Nurr1-LBD point mutants [4]): 18.0755 fold and 17.4184 fold and 17.5507 fold and 18.6728 fold
- Luciferase activity (fold) (Nurr1-LBD point mutants [5]): 16.9378 fold and 18.2618 fold and 17.9787 fold and 16.7737 fold
- Luciferase activity (fold) (Nurr1-LBD point mutants [6]): 2.735 fold and 2.747 fold and 2.797 fold and 2.7361 fold
- Luciferase activity (fold) (Nurr1-LBD point mutants [7]): 9.662 fold and 10.9664 fold and 10.3366 fold and 9.703 fold
